Data published in patent US9796711B2, “Substituted pyrazolo[3,4-b]pyridin-6-carboxylic acids and method of use” (AbbVie S.àr.l., priority 2015, dated 2017).
pEC50: −log10 of the molar value.

Key:
ΔF508-CFTR [1] = target: T1, ΔF508-CFTR (Homo sapiens, UniProt P13569, DEL508-508); assay: CFTR cell surface levels using HRP-tagged ΔF508-CFTR expressing CFBE cells, intrinsic corrector capacity; assay type: cell-based; details: HRP-tagged ΔF508-CFTR CFBE41o- cells, compounds alone (intrinsic corrector capacity), 20 hours at 33° C.; for % Activation: positive control 3 μM corrector; for pEC50: read-out: EC50
T1 construct: host or cells: CFBE41o-, doxycycline-inducible
Outline: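 Here the cells express ΔF508-CFTR with horseradish peroxidase inserted in extracellular loop 4, so only rescued channel at the surface gives luminescent signal. Compounds act on their own, 20 h at the reduced temperature of 33 °C; values are percent activity relative to DMSO and a 3 μM corrector.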

ΔF508-CFTR [2] = target: T1, ΔF508-CFTR; assay: CFTR cell surface levels using HRP-tagged ΔF508-CFTR expressing CFBE cells, in the presence of a co-corrector; assay type: cell-based; details: HRP-tagged ΔF508-CFTR expressing CFBE cells, in the presence of 3 μM co-corrector; for pEC50: read-out: EC50
Outline: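 Cells were seeded with 0.5 μg/mL doxycycline and held 68 h at 37 °C. Test compounds plus 3 μM co-corrector (final 0.1% DMSO) were then added for 20 h at 33 °C. Washed cells received HRP substrate, and luminescence was normalized between DMSO and 3 μM co-corrector controls.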

T1 sequence (P13569 with tags, fused parts or gaps DEL508-508): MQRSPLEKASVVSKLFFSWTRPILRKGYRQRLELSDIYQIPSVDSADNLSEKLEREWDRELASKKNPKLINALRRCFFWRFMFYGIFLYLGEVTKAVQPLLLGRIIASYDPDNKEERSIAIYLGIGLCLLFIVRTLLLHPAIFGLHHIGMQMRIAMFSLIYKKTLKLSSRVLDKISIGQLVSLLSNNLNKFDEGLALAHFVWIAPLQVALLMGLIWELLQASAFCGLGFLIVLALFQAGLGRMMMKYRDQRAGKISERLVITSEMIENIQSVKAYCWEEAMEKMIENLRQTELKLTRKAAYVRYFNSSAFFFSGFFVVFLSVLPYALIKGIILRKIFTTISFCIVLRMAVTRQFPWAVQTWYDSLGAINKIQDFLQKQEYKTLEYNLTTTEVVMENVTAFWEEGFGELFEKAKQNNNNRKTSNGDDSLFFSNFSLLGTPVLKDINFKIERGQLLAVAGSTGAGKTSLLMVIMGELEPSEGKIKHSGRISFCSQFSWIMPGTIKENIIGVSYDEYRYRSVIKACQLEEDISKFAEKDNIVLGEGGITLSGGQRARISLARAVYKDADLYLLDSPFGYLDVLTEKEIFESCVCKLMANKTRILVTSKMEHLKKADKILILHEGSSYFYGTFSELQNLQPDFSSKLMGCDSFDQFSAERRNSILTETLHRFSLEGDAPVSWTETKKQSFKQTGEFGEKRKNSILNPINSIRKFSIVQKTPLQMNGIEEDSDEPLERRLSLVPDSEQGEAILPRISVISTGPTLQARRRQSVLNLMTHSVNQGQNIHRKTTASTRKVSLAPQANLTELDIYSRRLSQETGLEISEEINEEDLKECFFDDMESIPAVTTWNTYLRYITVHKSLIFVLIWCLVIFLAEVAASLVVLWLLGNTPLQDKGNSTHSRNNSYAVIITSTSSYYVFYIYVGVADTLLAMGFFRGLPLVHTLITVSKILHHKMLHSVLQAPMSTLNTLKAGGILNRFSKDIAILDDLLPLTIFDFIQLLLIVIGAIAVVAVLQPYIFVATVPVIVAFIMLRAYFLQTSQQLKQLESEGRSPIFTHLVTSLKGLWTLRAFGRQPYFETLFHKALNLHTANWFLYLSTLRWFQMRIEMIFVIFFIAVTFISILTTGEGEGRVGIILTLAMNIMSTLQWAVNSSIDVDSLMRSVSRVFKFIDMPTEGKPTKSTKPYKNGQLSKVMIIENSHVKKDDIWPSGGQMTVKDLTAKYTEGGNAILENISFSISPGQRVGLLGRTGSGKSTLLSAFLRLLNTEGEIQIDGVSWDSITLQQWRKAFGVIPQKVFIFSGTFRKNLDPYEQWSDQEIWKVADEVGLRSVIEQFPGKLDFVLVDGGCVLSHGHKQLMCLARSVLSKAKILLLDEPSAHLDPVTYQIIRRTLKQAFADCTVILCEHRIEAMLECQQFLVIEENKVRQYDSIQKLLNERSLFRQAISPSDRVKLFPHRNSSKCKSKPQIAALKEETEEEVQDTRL

Row | SMILES | % Activation (ΔF508-CFTR [1]) [%] | pEC50 (ΔF508-CFTR [1]) | % Activation (ΔF508-CFTR [2]) [%] | pEC50 (ΔF508-CFTR [2])
1 | COC(=O)N1CC(c2nn(C3CCCCC3)c3nc(C(=O)O)cc(-c4cnc(N(C)C)nc4)c23)C1 [compound 166, 1-cyclohexyl-4-[2-(dimethylamino)pyrimidin-5-yl]-3-[1-(methoxycarbonyl)azetidin-3-yl]-1H-pyrazolo[3,4-b]pyridine-6-carboxylic acid] | 68.01 | 5.48 | 241.5 | 5.49
2 | CC(C)c1nn(-c2cccc(N3CC(F)C3)c2)c2nc(C(=O)O)cc(-c3ccc(N4CCOCC4)cc3)c12 [compound 167, 1-[3-(3-fluoroazetidin-1-yl)phenyl]-4-[4-(morpholin-4-yl)phenyl]-3-(propan-2-yl)-1H-pyrazolo[3,4-b]pyridine-6-carboxylic acid] | 301.1 | 6.22 | 568.2 | 6.27
3 | Cc1nn(-c2ccccc2)c2nc(C(=O)O)cc(-c3ccc(N(C)C4CCOCC4)nc3)c12 [compound 168, 3-methyl-4-{6-[methyl(oxan-4-yl)amino]pyridin-3-yl}-1-phenyl-1H-pyrazolo[3,4-b]pyridine-6-carboxylic acid] | 190.23 | 5.89 | 379.07 | 6.16
4 | COCCN(C)c1ccc(-c2cc(C(=O)O)nc3c2c(C(C)C)nn3C2CCCCC2)cn1 [compound 170, 1-cyclohexyl-4-{6-[(2-methoxyethyl)(methyl)amino]pyridin-3-yl}-3-(propan-2-yl)-1H-pyrazolo[3,4-b]pyridine-6-carboxylic acid] | 208.6 | 6.13 | 482.4 | 6.30
5 | CC(=O)Nc1ccc(-c2cc(C(=O)O)nc3c2c(C(C)C)nn3C2CCCCC2)cc1 [compound 171, 4-(4-acetamidophenyl)-1-cyclohexyl-3-(propan-2-yl)-1H-pyrazolo[3,4-b]pyridine-6-carboxylic acid] | 199.67 | 5.92 | 450.73 | 5.97
6 | COCCN(C)c1cccc(-n2nc(C(C)C)c3c(-c4ccc(N5CCOCC5)cc4)cc(C(=O)O)nc32)c1 [compound 172, 1-{3-[(2-methoxyethyl)(methyl)amino]phenyl}-4[4-(morpholin-4-yl)phenyl]-3-(propan-2-yl)-1H-pyrazolo[3,4-b]pyridine-6-carboxylic acid] | 339.33 | 6.21 | 513.1 | 6.32
7 | Cc1cccc(-n2nc(C(C)C)c3c(N4CCCC4)cc(C(=O)O)nc32)c1 [compound 173, 1-(3-methylphenyl)-3-(propan-2-yl)-4-(pyrrolidin-1-yl)-1H-pyrazolo[3,4-b]pyridine-6-carboxylic acid] | 182.82 | 5.53 | 380.52 | 5.60
8 | Cc1cccc(-n2nc(C(C)C)c3c(N4CC(F)C4)cc(C(=O)O)nc32)c1 [compound 174, 4-(3-fluoroazetidin-1-yl)-1-(3-methylphenyl)-3-(propan-2-yl)-1H-pyrazolo[3,4-b]pyridine-6-carboxylic acid] | 90.21 | 5.49 | 260.12 | 5.60
9 | Cc1cccc(-n2nc(C(C)C)c3c(-c4ccc(N5CCC(C#N)CC5)nc4)cc(C(=O)O)nc32)c1 [compound 175, 4-[6-(4-cyanopiperidin-1-yl)pyridin-3-yl]-1-(3-methylphenyl)-3-(propan-2-yl)-1H-pyrazolo[3,4-b]pyridine-6-carboxylic acid] | 321.67 | 6.09 | 522.6 | 6.27
10 | CC(C)c1nn(-c2cccc(N(C)C)c2)c2nc(C(=O)O)cc(-c3ccc(N4CCC(C#N)CC4)cc3)c12 [compound 176] | 382.28 | 6.28 | 619.28 | 6.35
11 | CC(C)c1nn(-c2cccc(N(C)C)c2)c2nc(C(=O)O)cc(-c3ccc(N4CCC(C#N)CC4)nc3)c12 [compound 177] | 364.43 | 6.15 | 606.47 | 6.16
12 | CC(C)c1nn(-c2cccc(N3CCOCC3)c2)c2nc(C(=O)O)cc(-c3ccc(N4CCC(C#N)CC4)nc3)c12 [compound 178] | 415 | 6.20 | 591 | 6.34
13 | COCCN(C)c1ccc(-c2cc(C(=O)O)nc3c2c(C(C)C)nn3-c2cccc(N3CCOCC3)c2)cn1 [compound 179] | 329.25 | 5.55 | 548 | 6.01
14 | CC(C)c1nn(C2CCCCC2)c2nc(C(=O)O)cc(-c3ccc(N4CCC(C#N)CC4)nc3)c12 [compound 180, 4-[6-(4-cyanopiperidin-1-yl)pyridin-3-yl]-1-cyclohexyl-3-(propan-2-yl)-1H-pyrazolo[3,4-b]pyridine-6-carboxylic acid] | 249.55 | 6.01 | 524.85 | 6.16
15 | CC(C)c1nn(C2CCCCC2)c2nc(C(=O)O)cc(-c3ccc(N4CCC(F)(F)C4)nc3)c12 [compound 181, 1-cyclohexyl-4-[6-(3,3-difluoropyrrolidin-1-yl)pyridin-3-yl]-3-(propan-2-yl)-1H-pyrazolo[3,4-b]pyridine-6-carboxylic acid] | 149.2 | 5.91 | 397.95 | 5.98
16 | CN(c1ccc(-c2cc(C(=O)O)nc3c2c(C2CCC2)nn3-c2ccccc2)cn1)C1CCOCC1 [compound 183, 3-cyclobutyl-4-{6-[methyl(oxan-4-yl)amino]pyridin-3-yl}-1-phenyl-1H-pyrazolo[3,4-b]pyridine-6-carboxylic acid] | 252.9 | 6.28 | 469.58 | 6.34
17 | COCCN(C)c1ccc(-c2cc(C(=O)O)nc3c2c(C(C)C)nn3C2CCCCC2)cc1 [compound 184, 1-cyclohexyl-4-{4-[(2-methoxyethyl)(methyl)amino]phenyl}-3-(propan-2-yl)-1H-pyrazolo[3,4-b]pyridine-6-carboxylic acid] | 170.25 | 6.03 | 377.4 | 6.17
18 | CC(C)c1nn(C2CCCCC2)c2nc(C(=O)O)cc(-c3ccc(N4CCC(C#N)CC4)cc3)c12 [compound 185, 4-[4-(4-cyanopiperidin-1-yl)phenyl]-1-cyclohexyl-3-(propan-2-yl)-1H-pyrazolo[3,4-b]pyridine-6-carboxylic acid] | 237.8 | 5.95 | 478.6 | 6.28
19 | O=C(O)c1cc(-c2ccc(N3CCOCC3)cc2)c2c(C3CCCO3)nn(-c3ccccc3)c2n1 (stereo not shown) [compound 186, 4-[4-(morpholin-4-yl)phenyl]-3-(oxolan-2-yl)-1-phenyl-1H-pyrazolo[3,4-b]pyridine-6-carboxylic acid] | 168.7 | 5.73 | 378.4 | 5.90
